US8841269B2, “Polynucleotides for use in treating and diagnosing cancers” (Creighton University, priority 2010, dated 2014)
“Also recorded” adds a separate entry of the source.

Tests used:
[1] = system: 3′ UTR of human ER-α gene; assay: Luciferase reporter assay, ER-α 3′ UTR let-7 binding site in pMIR-REPORT; format: cell-based; conditions: MCF7 cells
From the text: Luciferase assay. A fragment of the 3′ UTR of human ER-α gene, which contains the putative let-7 target sites, was synthesized (IDT technology). With attached SpeI and HindIII restriction sites, the fragments are 48 by long. The sense strand was 5′-[…] (SEQ ID NO:39) while the antisense strand was 5′-[…] (SEQ ID NO:40). The cloning and transfection followed previous protocol (Hu et al., 2009, J Immunol 183:1617-24). Sixty nanomolar let-7 mimics, anti-let-7 inhibitors, pre-miR negative control #1 (AM17110, Ambion), or anti-miR negative control #1 (AM17010, Ambion) were transfected together with a 0.25 μg luciferase construct and a 0.25 μg β-galactosidase plasmid, which were used as a normalization reference. After 24 hour post-transfection, the luciferase activity was measured in a Veritas Microplate Luminometer (Turner Biosystems). Every treatment had 3 replicates. The luciferase activity was expressed as a fraction of negative control.

ER-α = assay: Immunoblot of ER-α after transfection in MCF7; format: cell-based, human; conditions: MCF7, mimics 60 nmol/L
From the text: (§1) Immunoblot analysis. For Western blot in FFPE tissues, an established method was followed (Addis et al., 2009, Proteomics 9:3815-23). For MCF7 cell line, let-7 mimics and negative control miRNA (60 nmol/L), or let-7 inhibitors and anti-miR negative control (60 nmol/L) were transfected following the protocol of siPORT NeoFX Transfection Agent (Applied Biosystems), The Western blot procedure was described before (Zhang et al., 2010, J Proteome Res., 9(2):980-989). Antibody information is as follows: ER-α, RB-9016-P1, Thermoscientific; Cyclin D1, sc-8396, Santa Cruz; pS2, ab80782 was Abeam; β-Actin, sc-69879, Santa Cruz.

ER-α mRNA = assay: Real-time PCR of ER-α mRNA after transfection in MCF7; format: cell-based, human; conditions: MCF7, mimics, after 6 days
Procedure: For real-time PCR on the expression of ER-α, total RNA was extracted using Trizol reagent (Invitrogen). One microgram RNA was used for cDNA synthesis following the protocol of SuperScript III First-Strand Synthesis System (Invitrogen). After 10 times dilution, 4 μL cDNA was used in a 20 μL reaction volume, which included 4 μL of 1.5 μM primers, 2 μL of 2 μM probes, and 10 μL master mix (Applied Biosystems). β-actin was the internal control. The oligos for ER-α are: forward primer, 5′-GCGGCCACGGACCAT (SEQ ID NO:17); reverse primer, 5′-[…] (SEQ ID NO:18); probe, 5′-FAM-[…]-TAMRA (SEQ ID NO:19).
(§2) For FFPE tissues, there was the same repeat number as in microarray; for cell lines, there were three biological repeats. Each sample had three technical repeats on the PCR plate. Real-time PCR was performed on an Applied Biosystems 7900HT real-time PCR instrument. PCR was initiated by two holds of 52° C. 2 min and 94° C. 10 min each, followed by 40 cycles of 15 s at 95° C. and 1 min at 60° C.

[2] = Real-time PCR quantification of mature let-7 after mimic transfection in MCF7; format: cell-based, human; conditions: MCF7, relative quantity against RNU48
Procedure: Quantitative real-time PCR. For miRNA quantification in FFPE tissues, total RNA was extracted as described above; for miRNA quantification in cell lines, total RNA was isolated using mirVana miRNA Isolation Kit (Ambion Inc.). cDNA was synthesized by using 100 ng total RNA in a reaction volume of 15 μL, by following the protocol of Taqman miRNA Reverse Transcription Kit (Applied Biosystems). After 15 times dilution, 9 μL cDNA was used for real-time PCR in a 20 μL reaction volume, including 10 μL of master mix and 1 μL Taqman probe (Applied Biosystems). This reaction system only detects mature miRNAs not pre-miRNAs. The level of each miRNA was expressed following the 2^−ΔΔCt or […] method using the small nuclear RNA, RNU48, as the internal reference.
as §2

cyclin D1 = assay: Immunoblot of cyclin D1 after transfection in MCF7; format: cell-based, human; conditions: MCF7, mimics
From the text: as §1

pS2 = assay: Immunoblot of pS2 after transfection in MCF7; format: cell-based, human; conditions: MCF7, mimics
From the text: as §1

[3] = system: estrogen response element (ERE) construct; assay: ERE luciferase assay (2 ERE-tk-Luc), genomic estrogen pathway in MCF7; format: cell-based, human
Procedure: For checking on the genomic estrogen pathway, 10^5 MCF7 cells were first seeded into each well on a 24-well plate and cultured in IMEM with 2.5% charcoal-stripped FBS for 2 days. Then the cells were transfected as described above except that the estrogen response element (ERE) construct (2 ERE-tk-Luc; obtained from Katarine Pettersson, Karolinska Institute, Stockholm) replaced the pMIR-REPORT plasmid for 1 day. After stimulation with 10 nmol/L E2 for 12 hours, luciferase activity was measured as described above.

MCF7 cells [4] = assay: MTT cell proliferation assay in MCF7; format: cell-based, human
Procedure: (§3) MTT cell proliferation assay. MCF7 cells were transfected with let-7 mimics or negative controls (60 nmol/L) in normal growth medium for 1 day, or in medium with 2.5% charcoal-stripped FBS for 2 days to exhaust endogenous estrogen, following the protocol of siPORT NeoFX Transfection Agent (Applied Biosystems). For the experiment in normal growth medium, 10^4 cells in the volume of 100 μL were seeded in a 96-well plate for 12 hours and assay lasted for another 4 days. For experiments in E2 free medium, 1.5 10^4 cells were seeded in a 96-well plate for 12 hours and then exposed to 10 nmol/L E2, or not, for up to 4 days. For both experiments, each treatment had 12 replicates on the plate. The cells were then incubated in 0.83 mg/mL 3-[4,5-dimethylthiazol-2-yl]-2,5-diphenyltetrazolium bromide (MTT) in growth medium at 37° C. for 4 h and lysed in 100 μL of DMSO at room temperature for 15 min. The absorbance in each well was measured at 490 nm by an ELx800 Absorbance Microplate Reader (Biotek). Cell proliferation was normalized to day 0.

[5] = system: ER-α negative MDA-MB-231 cell line; assay: MTT cell proliferation assay in MDA-MB-231; format: cell-based, human; conditions: MDA-MB-231, DMEM with 10% FBS
Procedure: FIG. 10. The effects of let-7a, let-7b, and let-7i miRNAs on cell proliferation in ER-α negative MDA-MB-231 cell line. Cancer cell proliferation was monitored by MTT assays in the same way as in MCF7 cell line except MDA-MB-231 cells were grown in DMEM with 10% FBS.
as §3

MCF7 cells [6] = assay: Annexin-V binding assay for apoptosis in MCF7; format: cell-based, human; conditions: MCF7, after either 3 days or 6 days
Procedure: Annexin-V binding assay for apoptosis. […] The staining followed the protocol of FITC Annexin V Apoptosis Detection Kit I (Cat #556547, BD Biosciences). Cell populations were analyzed with a BD FACSAria™ flow cytometer. Approximately 20,000 cells were counted for each sample.

Substance: let-7a: let-7a miRNA (mimic), 3′-UUGAUAUGUUGGAUGAUGGAGU-5′ (SEQ ID NO:7) (chemistry not given here; listed 3' to 5')
- luciferase activity, ER-α binding site in 3′UTR of luciferase ([1]; 60 nmol/L mimics, vs negative control miRNA): decreased the luciferase activity; also recorded: significantly inhibited the luciferase activity
- luciferase activity, mutated ER-α binding sequence ([1]; mutated sequence in 3′UTR of luciferase): abrogated the effects; also recorded: did not show inhibition
- expression of ER-α (protein) (ER-α; after 2 days): significantly depressed the expression of ER-α
- expression of ER-α (protein) (ER-α; after 6 days): modest effect
- ER-α mRNA expression (ER-α mRNA): relieved
- rank of forced expression throughout the time course [2]: lowest expression
- expression of cyclin D1 (protein) (cyclin D1; after 2 days): significantly inhibited
- protein expression of cyclin D1 (cyclin D1; after 6 days): affected neither
- expression of pS2 (protein) (pS2; after 2 days): significantly inhibited
- protein expression of pS2 (pS2; after 6 days): affected neither
- ERE luciferase activity ([3]; MCF7, p2 ERE-tk-Luc, 10 nmol/L E2 12 hours, p<0.01): about 60 % of negative control
- luciferase activity of the ERE construct ([3]; MCF7 cell line): inhibit the luciferase activity of the ERE construct
- cell growth (MTT) with E2 (MCF7 cells [4]; MCF7, E2 free medium with addition of 10 nmol/L E2): least inhibition
- cell growth (MTT) (MCF7 cells [4]; MCF7, E2 free medium with or without addition of 10 nmol/L E2 (FIG. 9B-D)): slightly inhibited
- cell proliferation (MTT) (MCF7 cells [4]; MCF7, normal growth medium, 60 nmol/L): did not show a significant effect
- cell growth (MTT) [5]: None of three miRNAs significantly inhibited cell growth
- effect on apoptosis (MCF7 cells [6]): not significant
